# Measurements from patent US6291449A, “Use of 11-phenyl-dibenzazepine compounds to treat diarrhea or scours” (Children's Medical Center Corporation, priority 1998, dated 2001).
# Read-outs that look alike come from different tables or passages of the source.
# Columns and labels:
# T84 cells = experiment: Electrogenic Cl- secretion (short circuit current) in intact T84 monolayers; format: cell-based, human; parameters: inhibition of Cl- secretory response to carbachol (Isc): dose or concentration left out as unconfirmed; details: for inhibition of chloride secretion: T84 cells
# basolateral K+ channels [1] = experiment: K+ transport/conductance of basolateral membrane in apically permeabilized T84 monolayers; details: for increases in Isc and G in absence of K+: Na+ as sole permeant cation, 135 mM gradient; for effect on K+ transport (Isc and G): forskolin 10 μM, 135 mM K+ gradient; for duration of agonist-induced changes in Isc: permeabilized T84 monolayers; for activation of currents at positive transepithelial voltages: basolaterally directed K+ gradient
# rabbit colonic mucosa = experiment: Ussing chamber studies using rabbit colonic mucosa; parameters: species or system rabbit (New Zealand)
# basolateral K+ channel = experiment: 86Rb efflux from T84 monolayers (K+ channel activity); format: cell-based, human
# [2] = target: T1, basolateral NaK2Cl cotransporters (Homo sapiens, UniProt P55011); experiment: 86Rb uptake in T84 monolayers (bumetanide-sensitive NaK2Cl cotransport); format: cell-based
# T1 sequence (P55011 1-1212): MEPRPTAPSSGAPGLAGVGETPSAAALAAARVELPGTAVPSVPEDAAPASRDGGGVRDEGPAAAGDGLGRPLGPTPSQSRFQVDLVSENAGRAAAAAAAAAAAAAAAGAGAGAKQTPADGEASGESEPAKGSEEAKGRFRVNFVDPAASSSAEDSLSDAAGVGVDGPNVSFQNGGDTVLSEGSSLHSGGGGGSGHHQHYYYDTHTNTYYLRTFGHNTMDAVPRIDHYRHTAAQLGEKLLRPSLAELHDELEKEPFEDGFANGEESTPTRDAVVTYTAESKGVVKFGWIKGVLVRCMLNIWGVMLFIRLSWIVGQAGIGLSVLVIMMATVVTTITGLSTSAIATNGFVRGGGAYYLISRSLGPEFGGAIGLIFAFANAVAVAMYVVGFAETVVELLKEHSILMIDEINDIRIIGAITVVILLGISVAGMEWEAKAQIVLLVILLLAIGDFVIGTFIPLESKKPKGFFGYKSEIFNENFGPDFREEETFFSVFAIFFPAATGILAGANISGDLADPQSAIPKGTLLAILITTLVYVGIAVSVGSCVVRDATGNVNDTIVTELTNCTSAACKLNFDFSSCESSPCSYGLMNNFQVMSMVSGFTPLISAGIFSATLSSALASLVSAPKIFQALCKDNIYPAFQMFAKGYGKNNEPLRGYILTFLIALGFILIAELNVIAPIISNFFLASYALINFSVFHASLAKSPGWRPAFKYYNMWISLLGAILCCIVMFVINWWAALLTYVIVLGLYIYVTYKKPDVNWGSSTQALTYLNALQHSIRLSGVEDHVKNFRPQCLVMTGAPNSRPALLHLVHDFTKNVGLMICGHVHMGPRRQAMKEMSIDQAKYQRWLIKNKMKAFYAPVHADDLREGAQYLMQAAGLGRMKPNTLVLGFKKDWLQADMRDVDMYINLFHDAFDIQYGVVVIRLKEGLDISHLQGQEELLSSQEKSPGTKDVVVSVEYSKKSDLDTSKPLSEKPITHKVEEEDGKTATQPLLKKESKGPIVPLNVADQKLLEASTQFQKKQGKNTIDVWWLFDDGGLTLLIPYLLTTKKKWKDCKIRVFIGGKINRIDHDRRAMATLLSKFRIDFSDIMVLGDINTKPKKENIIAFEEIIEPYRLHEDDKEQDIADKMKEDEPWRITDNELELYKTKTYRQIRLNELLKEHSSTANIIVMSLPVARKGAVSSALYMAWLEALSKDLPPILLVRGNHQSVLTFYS
# Method: A group of control and CLT treated (33 μM, for 30 min) monolayers were treated with bumetanide (10 μM for 12 min).
# [3] = tested on: apical membrane Cl- channels; experiment: Cl- conductance of the apical plasma membrane in basolaterally permeabilized T84 monolayers; format: cell-based, human
# [4] = tested on: intestinal fluid secretion induced by cholera toxin; parameters: species or system mouse (Balb/C); details: mouse, in vivo
# [5] = tested on: apical membrane Cl- channels; experiment: 125I efflux from T84 monolayers (apical Cl- channel activity)
# basolateral K+ channels [6] = tested on: basolateral K+ channels
# [7] = carbachol (so in the source) stimulated, […]
# [8] = T84 cells, vs cells not treated with clotrimazole
# [9] = clotrimazole 33 μM, final 30 min of 90 min preincubation
molecule,measurement,setting,value
OC(c1ccccc1)(c1ccccc1)c1ccccc1Cl [2-chlorophenyl-bis-phenyl methanol],inhibition of chloride secretion,T84 cells,effective at inhibiting chloride secretion
same,inhibition of time course of K+ transport after carbachol,basolateral K+ channels [1]; carbachol 100 μM (Ca++ agonist),Nearly identical results
same,inhibition of time course of K+ transport after forskolin,basolateral K+ channels [1]; forskolin 10 μM (cAMP agonist),Nearly identical results
[Ba+2].[Cl-].[Cl-] [BaCl2],inhibition of Cl- secretory response to VIP (Isc),T84 cells,strongly inhibited
same,inhibition of Cl- secretory response to carbachol (Isc),T84 cells; [7],no apparent affect
same,effect on K+ transport induced by carbachol,"basolateral K+ channels [1]; carbachol 100 μM after forskolin, BaCl2 3 mM",no detectable effect
same,inhibition of cAMP-sensitive IK,"basolateral K+ channels [1]; forskolin 10 μM elicited, BaCl2 3 mM basolateral",greater than 70%
C[C@@H]1[C@H](O)[C@@H](C)/C=C/C=C/C=C/C=C/C=C/C=C/C=C/[C@H](O[C@@H]2O[C@H](C)[C@@H](O)[C@H](N)[C@@H]2O)C[C@@H]2O[C@](O)(C[C@@H](O)C[C@@H](O)[C@H](O)CC[C@@H](O)C[C@@H](O)CC(=O)O[C@H]1C)C[C@H](O)[C@H]2C(=O)O [amphotericin B],increase in conductance on initial permeabilization,"basolateral K+ channels [1]; amphotericin B, apical",49±19%
C[N+](C)(C)CCOC(N)=O [carbachol],effect on Isc after forskolin,rabbit colonic mucosa; carbachol 100 μM added after forskolin,no firther effect
same,increases in Isc and G in absence of K+,basolateral K+ channels [1],not detectable
same,time to return of IscK and GK to baseline,basolateral K+ channels [1]; after addition of carbachol,≤ 5 min
same,"carbachol-induced IscK, carbachol added after forskolin",basolateral K+ channels [1]; after forskolin,180.7±15.7 μA/cm^2
same,"carbachol-induced IscK, carbachol added alone",basolateral K+ channels [1]; carbachol alone,111.7±7.4 μA/cm^2
same,effect on K+ transport (Isc and G),basolateral K+ channels [1],increased K+ currents
same,duration of agonist-induced changes in Isc,basolateral K+ channels [1],short-lived
Clc1ccccc1C(c1ccccc1)(c1ccccc1)n1ccnc1 [clotrimazole],"apparent potency of inhibition, basolateral vs apical application",T84 cells,greater when applied basolaterally than apically
same,inhibition by basolateral application alone compared with both sides,T84 cells,almost as effective as incubation on both sides
same,inhibition of Cl- secretory response to VIP (Isc),T84 cells,inhibited
same,inhibition of Cl- secretory response to carbachol (Isc),T84 cells,inhibited
same,inhibition of Cl- secretory response to carbachol after pretreatment,T84 cells,inhibited strongly
same,inhibition of Cl- secretory response to ionomycin after pretreatment,T84 cells,inhibited strongly
same,inhibition of Cl- secretory response to thapsigargin after pretreatment,T84 cells,inhibited strongly
same,inhibition of cAMP and Ca++ elicited Cl- secretion,T84 cells,most potent inhibitor tested
same,inhibition of secretory response to 8Br-cAMP after pretreatment,T84 cells,inhibited
same,inhibition of secretory response to VIP after pretreatment,T84 cells,inhibited
same,inhibition of secretory response to forskolin after pretreatment,T84 cells,inhibited
same,inhibition of synergistic response to VIP plus carbachol,T84 cells,found to parallel the inhibition of secretion promoted by Ca^++ agonists alone
same,reversibility of inhibition of Cl- secretion,T84 cells,96±2%
same,IC50,"T84 cells; Homo sapiens, T84, read-out: IC50, inhibition of secretory response to E. Coli heat-stabile toxin",15 µM
same,potentiation of Cl- secretory responses to either agonist,T84 cells; low doses (10^-7 or less),5-10%
same,inhibition of Ca++ stimulated 86Rb efflux,basolateral K+ channel; [8],significantly inhibited
same,inhibition of baseline 86Rb efflux,basolateral K+ channel; [8],significantly inhibited
same,reduction of rate constant for VIP-stimulated 86Rb efflux,"basolateral K+ channel; VIP 5 μM, clotrimazole 33 μM",87%
same,86Rb loading of the cells,basolateral K+ channel; [9],did not alter
same,rate constant for VIP-stimulated 86Rb efflux,"basolateral K+ channel; clotrimazole-treated (vs 0.0465 untreated), n=2 in triplicate",0.0062 % uptake/minute
same,rate constant for thapsigargin-stimulated 86Rb efflux,"basolateral K+ channel; clotrimazole-treated (vs 0.048 untreated), n=2",0.011 % uptake/minute
same,inhibition of 86Rb efflux stimulated with thapsigargin,basolateral K+ channel; compared with VIP-stimulated efflux,inhibited to a similar degree
same,inhibition at 33 µM,"[2]; 0.5 h, read-out: reduction of total amount of 86Rb uptake",53.6 ± 5.8%
same,effect on fractional component of 86Rb uptake that was bumetanide-sensitive,"[2]; clotrimazole 33 μM, bumetanide 10 μM",no effect
same,effect on forskolin-stimulated Cl- conductances,[3]; symmetrical Cl- 142 mM,no detectable effect
same,effect on thapsigargin-stimulated Cl- conductances,[3]; symmetrical Cl- 142 mM,no detectable effect
same,inhibition of time course of forskolin induced Isc,"rabbit colonic mucosa; clotrimazole 30 μM, forskolin 10 μM",inhibited strongly
same,effect on intestinal secretion in the absence of cholera toxin,[4],no effect
same,reduction of intestinal fluid secretion induced by cholera toxin,[4],86%
same,rate constant for 125I efflux,"[5]; VIP-stimulated, clotrimazole-treated monolayers, n=2 in duplicate",0.0637 % uptake/minute
same,125I loading of the cells,[5]; [9],did not alter
same,"effect on time course of 125I efflux, VIP",[5]; monolayers treated with VIP,little or no effect
same,inhibition of time course of K+ transport after carbachol,basolateral K+ channels [1],significantly inhibited
same,inhibition of time course of K+ transport after forskolin,basolateral K+ channels [1],significantly inhibited
Clc1ccc(COC(Cn2ccnc2)c2ccc(Cl)cc2Cl)cc1 (stereo not shown) [econazole],inhibition of chloride secretion,T84 cells,effective at inhibiting chloride secretion
C=C[C@@]1(C)CC(=O)[C@]2(O)[C@@]3(C)[C@@H](O)CCC(C)(C)[C@@H]3[C@H](O)[C@H](OC(C)=O)[C@@]2(C)O1 [forskolin],effect on Cl- conductance over baseline,"[3]; forskolin 10 μM basolateral, no clotrimazole",increased Cl- conductances significantly over baseline
same,reversal potential (I/V relations),basolateral K+ channels [6],-40 mV
same,increases in Isc and G in absence of K+,basolateral K+ channels [1],not detectable
same,activation of currents at positive transepithelial voltages,basolateral K+ channels [1],activate macroscopic outwardly rectified (mucosal to serosal) currents
same,effect on K+ transport (Isc and G),basolateral K+ channels [1],brisk increase in K+ transport
same,duration of agonist-induced changes in Isc,basolateral K+ channels [1],sustained
CC(=O)N1CCN(c2ccc(OCC3COC(Cn4ccnc4)(c4ccc(Cl)cc4Cl)O3)cc2)CC1 (stereo not shown) [ketoconazole],inhibition of chloride secretion,T84 cells,effective at inhibiting chloride secretion
Clc1ccc(COC(Cn2ccnc2)c2ccc(Cl)cc2Cl)c(Cl)c1 (stereo not shown) [miconazole],inhibition of chloride secretion,T84 cells,effective at inhibiting chloride secretion
C/C=C(/C)C(=O)O[C@H]1C(C)=C2[C@H]([C@@H]1OC(=O)CCCCCCC)[C@@](C)(OC(C)=O)C[C@H](OC(=O)CCC)[C@@]1(O)[C@H]2OC(=O)[C@@]1(C)O [thapsigargin],reversal potential (I/V relations),basolateral K+ channels [6],-40 mV
same,activation of currents at positive transepithelial voltages,basolateral K+ channels [1],activate macroscopic outwardly rectified (mucosal to serosal) currents
charybdotoxin,inhibition of Cl- secretory response to VIP (Isc),T84 cells,minimal affects
same,inhibition of Cl- secretory response to carbachol (Isc),T84 cells; [7],strongly inhibited
same,effect on K+ transport induced by subsequent forskolin,basolateral K+ channels [1]; charybdotoxin 100 nM,no detectable effect
same,inhibition of carbachol-induced Ca++ IK,basolateral K+ channels [1]; charybdotoxin 100 nM pretreatment,50%
